The test system of assay [1] is Agrobacterium tumefaciens. The experiment in a line: Antitumor activity against Agrobacterium tumefaciens B6-induced crown-gall tumor formation in potato assessed as tumor induction at 25 ug/disk after 12 days at 27 degC by potato disk assay relative to control. In kind it is functional.
Assay [2] relates to Agrobacterium tumefaciens. Briefly: Antitumor activity against Agrobacterium tumefaciens B6-induced crown-gall tumor formation in potato assessed as tumor induction at 5 ug/disk after 12 days at 27 degC by potato disk assay relative to control. In kind it is functional.
In assay [3] the test system is Agrobacterium tumefaciens. Briefly: Antitumor activity against Agrobacterium tumefaciens B6-induced crown-gall tumor formation in potato assessed as tumor induction at 50 ug/disk after 12 days at 27 degC by potato disk assay relative to control. In kind it is functional.
Assay [4] deals with Agrobacterium tumefaciens. Briefly: Antitumor activity against Agrobacterium tumefaciens B6-induced crown-gall tumor formation in potato assessed as tumor induction at 10 ug/disk after 12 days at 27 degC by potato disk assay relative to control. In kind it is functional.
The subject of assay [5] is Brochothrix thermosphacta. Briefly: Antibacterial activity against Microbacterium thermosphactum at 50 to 500 ug/disk by paper-disk-plate technique. In kind it is functional, organism-based.
The next assay deals with Bacillus cereus. The experiment in a line: Antibacterial activity against Bacillus cereus at 50 to 500 ug/disk by paper-disk-plate technique. In kind it is functional, organism-based.
The test system of another assay is Chaetomium. Briefly: Antifungal activity against Chaetomium at 50 to 500 ug/disk by paper-disk-plate technique. In kind it is functional, organism-based.
In another assay the test system is Escherichia coli. The experiment in a line: Antibacterial activity against Escherichia coli at 50 to 500 ug/disk by paper-disk-plate technique. In kind it is functional, organism-based.
Another assay concerns Curvularia lunata. The experiment in a line: Antifungal activity against Curvularia lunata at 50 to 500 ug/disk by paper-disk-plate technique. In kind it is functional, organism-based.
In a further assay the test system is Citrobacter freundii. Briefly: Antibacterial activity against Citrobacter freundii at 50 to 500 ug/disk by paper-disk-plate technique. In kind it is functional, organism-based.
The subject of a further assay is Enterobacter cloacae. Briefly: Antibacterial activity against Enterobacter cloacae at 50 to 500 ug/disk by paper-disk-plate technique. In kind it is functional, organism-based.
Assay [6] deals with Agrobacterium tumefaciens. Briefly: Antibacterial activity against Agrobacterium tumefaciens at 50 to 500 ug/disk by paper-disk-plate technique. In kind it is functional, organism-based.
The next assay deals with Bacillus subtilis. The experiment in a line: Antibacterial activity against Bacillus subtilis at 50 to 500 ug/disk by paper-disk-plate technique. In kind it is functional, organism-based.
In another assay the test system is Aspergillus flavus. Briefly: Antifungal activity against Aspergillus flavus at 50 to 500 ug/disk by paper-disk-plate technique. In kind it is functional, organism-based.

Calls of active or inactive are those of the source. The calls are words filed in the database; no cut-off is given here.

On to `CCCCCC[C@@H](O)[C@H]1CCC2=C(O1)[C@@H](O)CCC2=O` [KONINGININ B], for which, in [1], the Activity is given as 1%.

On to `O=C(O)/C=C/CCCCCCCCC(=O)O` [TRAUMATIC ACID], for which the Activity in assay [1] was 28.4%.

For the molecule `C[C@@H]1C[C@H]2O[C@@H]2/C=C\C=C\C(=O)Cc2c(Cl)c(O)cc(O)c2C(=O)O1` [RADICICOL], the Activity in [2] is recorded as -76%; in [3], -100%; in [1] it was -75%; in [4], -94%.

For `CC(C)=C1Oc2c(ccc3c2COC(C)(O)C3)C1=O` (centres undefined) [PERGILLIN], in assay [1], the Activity was -68.9%.

For the molecule `CC[C@@]1(O)C(=O)OCc2c1cc1n(c2=O)Cc2cc3ccccc3nc2-1` [CAMPTOTHECIN], the Activity in assay [1] was -100%.

As for `CC[C@@H]1CCc2occ(CO)c(=O)c2[C@H]1O` [DIPLODIOL], the result (in assay [5]; in the assay with Bacillus cereus; in the assay on Chaetomium; in the assay with Escherichia coli; with Curvularia lunata; in the assay with Citrobacter freundii) was inactive. In addition, the outcome (with Enterobacter cloacae; in [6]; in the assay on Bacillus subtilis; in the assay on Aspergillus flavus) was inactive. In addition, the Activity in assay [2] is -70%; in assay [3] it was -75%; in [1] it was -96.3%; in [4], -73%.

With `CC1=C2C(=CO[C@H](C)[C@H]2C)C(O)=C(C(=O)O)C1=O` [CITRININ], in [1], the Activity is given as -26%.

As to `C[C@H]1CCC[C@H](C[C@H]2Cc3cc(O)cc(O)c3C(=O)O2)O1` [CLADOSPORIN], the Activity was -14% in assay [2], -90% in assay [3], -79% in assay [1] and -16% in assay [4].

As to `CC(=C\C(=O)O)/C=C(\C)C[C@H](C)CCCC[C@H]1OC(=O)[C@@H]1CO` [ANTIBIOTIC 1233A], the Activity in [1] was -39%.

In the case of `CCCCCC[C@@H]1O[C@]23O[C@H]1CC[C@H]2[C@@H](O)CC[C@H]3O` [KONINGININ A], the Activity in [1] was 75%.

Consider `C[C@@H]1C/C=C/CCCCC(=O)Cc2cc(O)cc(O)c2C(=O)O1` [MONOCILLIN IV], for which the outcome (in assay [5]; in the assay on Bacillus cereus; in the assay on Chaetomium; in the assay with Escherichia coli; in the assay with Curvularia lunata; in the assay on Citrobacter freundii) was inactive. The outcome (in the assay on Enterobacter cloacae; in assay [6]; in the assay with Bacillus subtilis; in the assay on Aspergillus flavus) was inactive. Also, the Activity is reported as -8% in [2], -75% in [3], -78% in [1] and -63% in [4].

As for `CO[C@]12c3c(C)cc(O)c4c(=O)occ(c34)C(=O)[C@H]1[C@]13COC(=O)c4c(O)cc(C)c(c41)C(=O)[C@H]2[C@@H]3OC(C)=O`, the outcome (in assay [5]; in the assay on Bacillus cereus; in the assay on Chaetomium; in the assay on Escherichia coli; in the assay with Curvularia lunata; with Citrobacter freundii) was inactive. For the same molecule, the outcome (in the assay with Enterobacter cloacae; in assay [6]; with Bacillus subtilis; in the assay on Aspergillus flavus) was inactive. Moreover, the Activity in assay [2] is reported as -67%; in [3], -94%; in assay [1], -95%; in [4], -74%.

For the molecule `CCCCCc1cccc(=O)o1`, the Activity in [1] is -35.5%.

On to `C[C@H]1CCC/C=C/[C@@H]2C[C@H](O)C[C@H]2[C@H](O)/C=C/C(=O)O1` [BREFELDIN A], for which, in [1], the Activity was -62%.

For `O=C1C=C2C(=CCOC2O)O1` (centres undefined) [PATULIN], the Activity in assay [1] was -66%.

In the case of `CC[C@H]1C2[C@H]([C@@H](C)c3c[nH]c4ccccc34)NC(=O)[C@@]23C(=O)/C=C\C(=O)[C@H](O)/C(C)=C\[C@@H](C)C/C=C/[C@H]3[C@@H]2O[C@]12C` (some centres undefined) [CHAETOGLOBOSIN K], the outcome (in assay [5]; in the assay with Bacillus cereus; with Chaetomium; with Escherichia coli; with Curvularia lunata; in the assay with Citrobacter freundii) was inactive. Further, the result (with Enterobacter cloacae; in assay [6]; in the assay with Bacillus subtilis; in the assay with Aspergillus flavus) was inactive. For the same molecule, the Activity was -74% in assay [2], -100% in [3], -94% in assay [1] and -97% in assay [4].

The values are drawn from ChEMBL document CHEMBL1148037, “Effect of Fungal Natural Products in an Agrobacterium tumefaciens Potato Disc Assay” (1994).
